Results published in article PMC3201017, “Modification of the loops in the ligand-binding site turns avidin into a steroid-binding protein” (BMC Biotechnology, 2011).
Where a chain is given by its changes, count along the chain named. Structures can show the parent of a compound that is named as a salt.

Columns and labels:
[1] = biological target: T1, sbAvd-1 (steroid-binding avidin mutant) (Gallus gallus, UniProt P02701, D37R/L38M/G39N/S40H); assay: SPR competition on testosterone-BSA chip, […] inhibitor
T1 construct: gene AVD; full avidin core, homotetramer, produced in E. coli

[2] = biological target: T2, sbAvd-2 (steroid-binding avidin mutant) (Gallus gallus, UniProt P02701, D37R/L38M/G39N/S40H/T59A/A60T/T62N); assay: as above
T2 construct: gene AVD; full avidin core, homotetramer, produced in E. coli
T2 sequence (P02701 25-152 D37R/L38M/G39N/S40H/T59A/A60T/T62N): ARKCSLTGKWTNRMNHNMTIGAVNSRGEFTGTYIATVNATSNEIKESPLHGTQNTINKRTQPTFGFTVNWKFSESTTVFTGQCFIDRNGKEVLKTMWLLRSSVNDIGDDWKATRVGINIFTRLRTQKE

[3] = biological target: T2, sbAvd-2 (steroid-binding avidin mutant); assay: microplate binding to immobilized HSA-conjugated progesterone
[4] = biological target: T1, sbAvd-1 (steroid-binding avidin mutant); assay: as above
[5] = biological target: the molecule itself; assay: SEC; FPLC gel-filtration, Superdex 200 10/300 GL, calibrated with a molecular-mass standard; 20 mM sodium phosphate pH 7.4, 1 M NaCl, 20 mM imidazole; 90-193 μg protein in 500 μl

Molecule: C[C@]12CC[C@H](OS(=O)(=O)O)CC1=CC[C@@H]1[C@@H]2CC[C@]2(C)C(=O)CC[C@@H]12 [DHEAS, dehydroepiandrosterone sulfate]
- SPR competition on testosterone-BSA chip, 50 μM inhibitor [1]: SbAvd-1 was found to be cross-reactive with androgens highly similar to testosterone (DHEAS and androstenedione)
- SPR competition on testosterone-BSA chip, 50 μM inhibitor [2]: The binding of sbAvd-2 to testosterone was found to be most efficiently inhibited by testosterone and DHEAS

Molecule: CC(=O)[C@H]1CC[C@H]2[C@@H]3CCC4=CC(=O)CC[C@]4(C)[C@H]3CC[C@]12C [PRO, progesterone]
- microplate binding to immobilized HSA-conjugated progesterone [3]: these modified Avds showed clear binding to testosterone and progesterone
- microplate binding to immobilized HSA-conjugated progesterone [4]: sbAvd-1 also binds other steroid hormones, such as progesterone and DHEAS

B1: steroid-binding avidin mutant sbAvd-1 (designed binder)
chain: ARKCSLTGKWTNRMNHNMTIGAVNSRGEFTGTYITAVTATSNEIKESPLHGTQNTINKRTQPTFGFTVNWKFSESTTVFTGQCFIDRNGKEVLKTMWLLRSSVNDIGDDWKATRVGINIFTRLRTQKE
notes: chicken avidin (Avd) with the loop between beta-strands 1 and 2 (N12, D13, L14, G15, S16) changed to N12, R13, M14, N15, H16; selected by phage display from the Avd L1,2 library; source: E. coli BL21-AI, pET101/D, secreted with the OmpA signal of Bordetella avium, purified (Ni-NTA)
- stoichiometry N [5]: 4

B2: steroid-binding avidin mutant sbAvd-2 (designed binder)
chain: B1 chain with T35A, A36T, T38N
notes: selected by phage display from the sbAvd-1 L3,4 library; source: E. coli BL21-AI, pET101/D, secreted with the OmpA signal of Bordetella avium, purified (Ni-NTA)
- stoichiometry N [5]: 4
